This note sets out measurements from ChEMBL document CHEMBL5518191, “Camptothecin structure simplification elaborated new imidazo[2,1-b]quinazoline derivative as a human topoisomerase I inhibitor with efficacy against bone cancer cells and colon adenocarcinoma” (Eur J Med Chem, 2024).

Data set [1] relates to HOS. As to the kind of experiment: Cytotoxicity against human HOS cells incubated for 48 hrs by MTT assay. In kind it is functional, cell-based. For orientation: Tetrazolium assays rely on reduction of a dye to a coloured formazan, in cell work by metabolically active cells.
For a further data set, the system named is PC-3. Description: Cytotoxicity against human PC-3 cells incubated for 48 hrs by MTT assay. In kind it is functional, cell-based. To be noted: PC-3, 48 h.
Data set [2] is described as follows: Cytotoxicity against human BJ cells incubated for 48 hrs by MTT assay. In kind it is toxicity, cell-based.
Another data set has as its system MCF7. Description: Cytotoxicity against human MCF7 cells incubated for 48 hrs by MTT assay. As to conditions: MCF7, 48 h. In kind it is functional, cell-based.
The subject of the next data set is MDA-MB-231. Description: Cytotoxicity against human MDA-MB-231 cells incubated for 48 hrs by MTT assay. In kind it is functional, cell-based. As to conditions: MDA-MB-231, 48 h.
Data set [3] concerns the target T1, DNA topoisomerase 1 (Homo sapiens) (UniProt P11387).
T1 sequence (whole entry): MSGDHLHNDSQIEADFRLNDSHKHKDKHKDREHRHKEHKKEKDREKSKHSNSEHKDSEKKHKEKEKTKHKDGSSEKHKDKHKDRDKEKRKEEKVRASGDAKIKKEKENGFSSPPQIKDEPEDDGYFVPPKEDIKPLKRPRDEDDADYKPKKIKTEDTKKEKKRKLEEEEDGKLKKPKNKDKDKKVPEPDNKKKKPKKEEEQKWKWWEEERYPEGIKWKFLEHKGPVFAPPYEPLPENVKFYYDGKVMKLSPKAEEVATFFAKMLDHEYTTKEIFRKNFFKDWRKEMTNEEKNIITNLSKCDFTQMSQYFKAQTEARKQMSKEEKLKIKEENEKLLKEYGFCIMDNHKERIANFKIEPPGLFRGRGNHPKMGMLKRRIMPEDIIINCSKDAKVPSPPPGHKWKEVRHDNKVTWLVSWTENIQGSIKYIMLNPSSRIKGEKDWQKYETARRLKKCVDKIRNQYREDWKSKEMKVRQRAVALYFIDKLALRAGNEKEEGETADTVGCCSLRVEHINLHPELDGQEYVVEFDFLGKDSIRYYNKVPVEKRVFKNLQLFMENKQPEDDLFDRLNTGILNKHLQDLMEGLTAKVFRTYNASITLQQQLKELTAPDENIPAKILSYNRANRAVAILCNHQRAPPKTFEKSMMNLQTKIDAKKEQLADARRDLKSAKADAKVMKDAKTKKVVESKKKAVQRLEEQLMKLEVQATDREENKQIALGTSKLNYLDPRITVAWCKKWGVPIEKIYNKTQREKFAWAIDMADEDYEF
As to the kind of experiment: Inhibition of human DNA topoisomerase 1 at 10 uM using supercoiled DNA as substrate incubated for 30 mins by EtBr staining based agarose gel electrophoresis method relative to control.

For data set [4], the system named is HOS. Description: Induction of cell cycle arrest in human HOS cells assessed as accumulation of cells at S phase after 48 hrs by flow cytometry analysis (reference value: 32.75 %). In kind it is functional. (A flow cytometer gives signals particle by particle.)
The test system of another data set is SK-OV-3. Description: Cytotoxicity against human SK-OV-3 cells incubated for 48 hrs by MTT assay. As to conditions: SK-OV-3, 48 h. In kind it is functional, cell-based.
Another data set deals with SAOS-2. As to the kind of experiment: Cytotoxicity against human SAOS-2 cells incubated for 48 hrs by MTT assay. In kind it is functional, cell-based. As to conditions: SAOS-2, 48 h.
Data set [5] has as its system HOS. Description: Induction of apoptosis in human HOS cells assessed as early apoptotic cells at 5 uM incubated for 48 hrs by Annexin-V FITC/PI staining based flow cytometry analysis (reference value: 0.46%). In kind it is functional.
Another data set concerns HCT-116. As to the kind of experiment: Cytotoxicity against human HCT-116 cells incubated for 48 hrs by MTT assay. In kind it is functional, cell-based. To be noted: HCT-116, 48 h.
For data set [6], the system named is HOS. As to the kind of experiment: Induction of apoptosis in human HOS cells assessed as fold decrease in Her2 gene expression at 1.47 uM incubated for 48 hrs by RT-qPCR analysis relative to positive control. In kind it is functional.
For data set [7], the system named is HOS. As to the kind of experiment: Induction of cell cycle arrest in human HOS cells assessed as accumulation of cells at G2/M phase after 48 hrs by flow cytometry analysis (reference value: 14.86 %). In kind it is functional.
For data set [8], the system named is HOS. Description: Induction of apoptosis in human HOS cells assessed as fold increase in BAX gene expression at 1.47 uM incubated for 48 hrs by RT-qPCR analysis relative to positive control. In kind it is functional. (In general: Quantitative PCR measures a nucleic acid by following its amplification.)
The next data set deals with MG-63. As to the kind of experiment: Cytotoxicity against human MG-63 cells incubated for 48 hrs by MTT assay. In kind it is functional, cell-based.
In data set [9] the test system is HOS. Description: Induction of apoptosis in human HOS cells assessed as fold decrease in BCL-2 gene expression at 1.47 uM incubated for 48 hrs by RT-qPCR analysis relative to positive control. In kind it is functional.
For the next data set, the system named is C-26. Description: Antitumor activity against mouse C26 cells xenografted in BALB/c mouse assessed as decrease in tumor volume at 250 mg/kg, po after 35 days. As to conditions: time 35.0 day. In kind it is functional, organism-based.
Data set [10] has as its system HOS. As to the kind of experiment: Induction of apoptosis in human HOS cells assessed as late apoptotic cells at 5 uM incubated for 48 hrs by Annexin-V FITC/PI staining based flow cytometry analysis (reference value: 0.21%). In kind it is functional.
The subject of data set [11] is HOS. As to the kind of experiment: Induction of apoptosis in human HOS cells assessed as necrotic cells at 5 uM incubated for 48 hrs by Annexin-V FITC/PI staining based flow cytometry analysis (reference value: 1.51%). In kind it is functional.
The subject of data set [12] is HOS. As to the kind of experiment: Cytotoxicity against human HOS cells cultured as 3D spheroids incubated for 120 hrs. In kind it is functional, cell-based.
Data set [13] can be described thus: Acute toxicity in Swiss albino mouse assessed as change in AST level at 1.47 uM/kg, po administered for 14 days. In kind it is organism-based. As to conditions: in vivo, 336 h, time 14 day.
Data set [14] is described as follows: Acute toxicity in Swiss albino mouse assessed as change in ALT level at 1.47 uM/kg, po administered for 14 days. In kind it is organism-based. As to conditions: in vivo, 336 h, time 14 day.
Data set [15] in a line: Antitumor activity against mouse C26 cells xenografted in BALB/c mouse assessed as decrease in tumor volume at 250 mg/kg, po after 5 weeks. In kind it is functional, C-26. Also noted: scale not given: the % may be the effect or the level left.
Data set [16] in a line: Antitumor activity against mouse C26 cells xenografted in BALB/c mouse assessed as decrease in tumor volume at 250 mg/kg, po after 1 week. In kind it is functional, C-26. Also noted: scale not given: the % may be the effect or the level left. As to conditions: time 1 weeks.
The subject of another data set is PANC-1. Description: Cytotoxicity against human PANC-1 cells incubated for 48 hrs by MTT assay. In kind it is functional, cell-based. As to conditions: PANC-1, 48 h.
A short description of data set [17]: Selectivity ratio of IC50 for human BJ cells to IC50 for human HOS cells.
The subject of data set [18] is HOS. As to the kind of experiment: Induction of apoptosis in human HOS cells assessed as fold increase in p53 gene expression at 1.47 uM incubated for 48 hrs by RT-qPCR analysis relative to positive control. In kind it is functional.
Data set [19] has as its system HOS. As to the kind of experiment: Induction of cell cycle arrest in human HOS cells assessed as accumulation of cells at G0/G1 phase after 48 hrs by flow cytometry analysis (reference value: 52.39 %). In kind it is functional.
The nature of data set [20]: Acute toxicity in Swiss albino mouse assessed as change in GGT level at 1.47 uM/kg, po administered for 14 days. In kind it is organism-based. To be noted: in vivo, 336 h, time 14 day.
In data set [21] the test system is HOS. Description: Induction of cell cycle arrest in human HOS cells assessed as accumulation of cells at pre-G1 phase after 48 hrs by flow cytometry analysis (reference value: 2.18 %). In kind it is functional.
A further data set has as its system DU-145. As to the kind of experiment: Cytotoxicity against human DU-145 cells incubated for 48 hrs by MTT assay. In kind it is functional, cell-based. To be noted: DU-145, 48 h.
The nature of data set [22]: Acute toxicity in Swiss albino mouse assessed as change in GGT level at 200 mg/kg, po administered for 14 days. In kind it is organism-based. To be noted: in vivo, 336 h, time 14 day.
A short description of data set [23]: Acute toxicity in Swiss albino mouse assessed as change in AST level at 200 mg/kg, po administered for 14 days. In kind it is organism-based. To be noted: in vivo, 336 h, time 14 day.
Data set [24] is described as follows: Acute toxicity in Swiss albino mouse assessed as change in ALT level at 200 mg/kg, po administered for 14 days. In kind it is organism-based. To be noted: in vivo, 336 h, time 14 day.
[25] abbreviates: Homo sapiens, MG-63, 48 h, read-out: IC50.

Calls of active or inactive are those of the source. No cut-off for these calls is given here. Some results are limits rather than exact numbers.

`O=C1NC(=S)n2c1cc1ccccc1c2=O`: the IC50 – broadly, the midpoint of a concentration-inhibition curve – was > 100 µM with HOS [1], > 100 µM in the data set with PC-3, 12.6 µM with MCF7 and > 100 µM in the data set on MDA-MB-231. This compound gave an IC50 at 48 h in [2] of 258 µM. Further, in data set [3], the inhibition result was “Active”.

With `O=c1/c(=C\c2ccccc2)n2c(=O)c3ccccc3nc2n1CCN1CCOCC1`, the Activity was found to be 27.51% with HOS [4]; 3.22% in the data set with HOS [5]; 11.41% in the data set with HOS [7]; 23.58% in the data set with HOS [10]; 12.81% in the data set on HOS [11]; 19.5 U/L in data set [13]. The Activity in data set [14] stood at 22 U/L; in data set [15] it was 75.36%; in data set [16] it was 35.5%; with HOS [19], 61.08%; in data set [20], 10.3 U/L; in the data set on HOS [21], 39.61%. In addition, the IC50 with SK-OV-3 is 3.48 µM; in the data set with SAOS-2 it was 3.2 µM; with HOS [1], 1.47 µM; with PC-3 it was > 100 µM; in the data set with HCT-116, 3.67 µM; in the data set with MG-63 (setting [25]), 17.9 µM. The IC50 with PANC-1 worked out at 19.1 µM; in the data set with MCF7 it was 56.4 µM; in the data set on MDA-MB-231, 5.96 µM; in the data set on DU-145, 3.81 µM. The “fold change (FC)” value was 0.237 in the data set with HOS [6], 6.143 in the data set on HOS [8], 0.146 with HOS [9] and 4.907 with HOS [18]. Also, the result in the data set on C-26 and in the data set with HOS [12] was Active. Besides, the “Ratio IC50” value in data set [17] was 2.89. Also, the midpoint of inhibition in data set [2], the IC50 at 48 h, lay at 4.25 µM. In addition, in data set [3], the inhibition result was “Active”.

On to `O=C1c2cc3ccccc3c(=O)n2C(=S)N1c1ccccc1`, for which the IC50 in the data set with HOS [1], in the data set with PC-3, in the data set with MCF7 and in the data set with MDA-MB-231 was > 100 µM throughout. Further, in [3], the inhibition entry was “Active”.

Consider `O=c1c2ccccc2nc2n1c(=O)c1cc3ccccc3c(=O)n12`, for which the IC50 was > 100 µM with HOS [1], > 100 µM in the data set on PC-3, > 100 µM in the data set with MCF7 and 70.7 µM in the data set on MDA-MB-231. For the same compound, in data set [2], the half-inhibitory concentration (IC50) at 48 h worked out at 128 µM. Also, the inhibition result in data set [3] is “Active”.

With `COc1cc2nc3n(c(=O)c2cc1OC)c(=O)c1cc2ccccc2c(=O)n13`, the 50% inhibitory concentration (IC50) in the data set on HOS [1], in the data set on PC-3, with MCF7 and in the data set with MDA-MB-231 was > 100 µM throughout. The inhibition result in data set [3] is “Active”.

Take `COc1cccc2c1C(=O)c1c(O)c3c(c(O)c1C2=O)C[C@@](O)(C(=O)CO)C[C@@H]3O[C@H]1C[C@H](N)[C@H](O)[C@H](C)O1` [DOXORUBICIN]: the IC50 in the data set with SK-OV-3 is 0.033 µM; in the data set with SAOS-2, 0.144 µM; with HOS [1], 0.03 µM; with PC-3 it was 0.567 µM; in the data set with MG-63 (mg-63), “Not Active”; in the data set with PANC-1, 0.086 µM. Also, the values for the half-maximal inhibitory concentration (IC50) with MCF7, in the data set on MDA-MB-231 and in the data set with DU-145 were 0.01 µM, 1.15 µM and 0.072 µM, respectively. Moreover, the Activity in data set [22] is listed as 13.7 U/L; in data set [23], 31 U/L; in data set [24] it was 60 U/L.

For the compound `CC[C@@]1(O)C(=O)OCc2c1cc1n(c2=O)Cc2cc3ccccc3nc2-1` [CAMPTOTHECIN], the half-inhibitory concentration (IC50) in the data set with SK-OV-3 is 0.241 µM; in the data set with SAOS-2, 0.055 µM; in the data set on HOS [1], 0.049 µM; with PC-3, 0.234 µM; with HCT-116, 0.051 µM; in the data set with MG-63 (setting [25]), 0.046 µM. Besides, the IC50 in the data set with PANC-1 came to 0.233 µM; in the data set with MCF7, 0.324 µM; in the data set with MDA-MB-231, 0.108 µM; with DU-145 it was 0.042 µM.
